# Reference: PMC12344774, “Ferrocenyl Quinoline-Benzimidazole Hybrids: A Multistage Strategy to Combat Drug-Resistant Malaria” (Inorganic Chemistry, 2025)
# Like-named read-outs stand apart in the source and are kept apart here.
# Key:
# [1] = system: PfK1; test: microbe, parasite or virus in culture; format: cell-based, Plasmodium falciparum; conditions: read-out: PfK1 IC50 ± SEM
# Excerpt: (§1) This side chain is also present in the well-known antiplasmodial agent, FQ.
# (§2) Test samples were screened in technical duplicate or triplicate, for three or four biological replicates, for their in vitro blood stage antiplasmodial activity against both the drug-sensitive (NF54) and multidrug-resistant (K1) strains of . Continuous in vitro cultures of asexual erythrocyte stages of were maintained using a modified method of Trager and Jensen. A quantitative assessment of the in vitro antiplasmodial activity was determined via the parasite lactate dehydrogenase (pLDH) assay, using a modified method described by Makler and Hinrichs.
# (§3) The test samples were prepared to a 20 mg/mL stock solution in 100% DMSO. Stock solutions were stored at −20 °C. Further dilutions were prepared in complete medium on the day of the experiment. […] Chloroquine diphosphate (CQDP) was used as the reference drug in all experiments. Test samples were tested at a starting concentration of either 100 μg/mL, 50 μg/mL, 10 μg/mL, or 1 μg/mL, which was then serially diluted 2-fold, in complete medium, to give 10 concentrations. The same dilution technique was used for all samples. […] The IC50 values were obtained from full dose–response curves, using a nonlinear dose–response curve fitting analysis, via GraphPad Prism v.5 software.
# [2] = system: PfNF54; test: In vitro ABS antiplasmodial activity, pLDH assay, drug-sensitive NF54; format: cell-based, Plasmodium falciparum; conditions: read-out: PfNF54 IC50 ± SEM
# Excerpt: as §1, §2, §3
# [3] = system: β-hematin formation; test: NP-40 detergent-mediated β-hematin formation inhibition assay (cell-free); format: biochemical; conditions: NP-40, pH 4.8, 5 h, 37 °C, read-out: β-hematin formation inhibition IC50 ± SEM
# Excerpt: The ability of a compound to inhibit Hz formation can be predicted using the biomimetic cell-free NP40 detergent-mediated β-hematin formation inhibition assay. , This assay mimics the conditions in the acidic DV of the parasite and relies on the binding of pyridine to uncrystallized free heme to detect the inhibition of β-hematin formation using UV–vis spectroscopy (with absorbance measured at 405 nm). , Consequently, the ability of the ferrocenyl quinoline-benzimidazole hybrids (C1–C5) to inhibit β-hematin (synthetic Hz) formation was investigated as a potential mechanism of antiplasmodial action.
# The β-hematin formation inhibition assay was modified from the method reported by Sandlin et al. , Stock solutions of the respective test compounds were prepared to 10 mM, in 100% DMSO, with the exception of CQ (used in the salt form, CQDP), which was prepared in Milli-Q water. […] NP-40 is a detergent used to mediate the formation of β-hematin. The solution in column 12 was then serially diluted 2-fold, through to column 2, to give a total of 11 concentrations. Column 1 contained 0 μM of the test compound and thus served as a blank. […] A 178.8 μL aliquot of this hematin suspension was added to 20.0 mL of a 2 M acetate buffer (pH = 4.8) and 100 μL of this solution added to each well. The plates were then covered and incubated for 5 h, at 37 °C. The assay was analyzed using the pyridine-ferrochrome method developed by Ncokazi and Egan. A solution containing water/acetone/2 M HEPES buffer (pH 7.4)/pyridine, in a v/v ratio of 2/2/1/5, was prepared and 32 μL was added to all wells, followed by 60 μL of acetone. The absorbance values were then measured at 405 nm, the results plotted using GraphPad Prism (v5), and the IC50 values obtained using a sigmoidal dose–response curve fitting analysis.
# [4] = system: CHO cell line
# Procedure: (§6) The samples were tested over 48 h against the Chinese hamster ovarian (CHO) cell line to determine general cytotoxicity. […] Quantitative assessment of toxic activity in vitro was determined via the MTT assay using the method described. Cell viability was determined colorimetrically using the breakdown of a dye by enzymes of the electron transport chain, taking place in the mitochondria of metabolically active living cells, as a marker for survival.
# (§7) Compounds were tested in triplicate on a single occasion against these cells using the MTT assay. The test samples were prepared to a 10 mM stock solution, in 100% DMSO, and stored at −20 °C until use. Samples were tested as a suspension if not completely dissolved. Further dilutions to the desired starting concentration were freshly prepared in growth media at the start of the experiment.
# (§8) Cells were plated to a density of 10^5 cells/well in 96-well plates and allowed to attach for 24 h. […] After 44 h MTT was added, and the plates were read 4 h later at 540 nm on a spectrophotometer following the addition of 100 μL of DMSO and gentle plate-shaking to solubilize and visualize the dye. Survival was plotted against concentration, and the IC50 values were obtained using a nonlinear dose–response curve fitting analysis via the Dotmatics software platform.
# [5] = Cyclic voltammetry of the ferrocene/ferrocenium couple; format: physicochemical; conditions: for Reversibility of the ferrocene/ferrocenium couple: DCM/0.1 M TBAP system; for Ipc/Ipa / ΔE / Anodic peak potential Epa / Cathodic peak potential Epc / Half-wave potential E1/2: scan rate 100 mV/s, CH2Cl2, 0.1 M TBAP; for Anodic peak potential Epa / Cathodic peak potential Epc / Half-wave potential E1/2: vs Ag/AgCl
# Procedure: It has been proposed that the oxidation of ferrocene (Fe(C5H5)2) to the ferrocenium cation (Fe(C5H5)2 ^+) is a reversible one-electron transfer process. […] This prompted the investigation into the electrochemical properties of the Fe(C5H5)2/Fe(C5H5)2 ^+ couple in complexes C1–C5, using cyclic voltammetry. FQ was used as the reference, as it is considered the benchmark for all newly developed ferrocenyl-based antiplasmodials.
# Nuclear magnetic resonance (NMR) spectra were recorded on a Bruker XR600 MHz spectrometer (^1H at 599.95 MHz and ^13C{^1H} at 151.0 MHz), a Bruker […] (^1H at 400.22 MHz and ^13C{^1H} at 100.65 MHz), or a Varian Mercury 300 (^1H at 300.08 MHz) spectrometer. These were equipped with a Bruker Biospin GmbH casing and sample injector at 30 °C and tetramethylsilane (TMS) was used as the internal standard. Coupling constants are reported in Hz and chemical shifts are reported in ppm relative to residual solvent signals. Infrared (IR) spectroscopy was performed on a PerkinElmer Spectrum 100 FT-IR spectrometer, using attenuated total reflectance (ATR), with vibrations measured in units of cm^–1. Cyclic voltammetric measurements were carried out at ambient temperature under an inert argon atmosphere using a three-electrode system on a BASi Epsilon Eclipse potentiostat/galvanostat electrochemical workstation. The C-3 cell stand, equipped with a glassy carbon working electrode, Ag/AgCl (saturated NaCl) reference electrode, and a Pt wire auxiliary electrode were used to carry out electrochemical measurements. All experiments were carried out in anhydrous dichloromethane containing 0.10 M tetra-n-butylammonium perchlorate (TBAP) as the supporting electrolyte.
# [6] = system: Mature gametocytes (>95% stage V); test: microbe, parasite or virus in culture; format: cell-based, Plasmodium falciparum; conditions: for % Inhibition, mature gametocytes: maximum inhibition at 10 μM, 48 h drug pressure; for inhibition at 5 µM: Plasmodium falciparum, read-out: % Inhibition, mature gametocytes (controls)
# Procedure: (§4) Compounds are diluted 3-fold in at least a 9-point serial dilution series starting at 20 μM, with a nonlethal DMSO concentration of <0.1% maintained. Luciferase activity was determined in 30 μL parasite lysates by adding 30 μL luciferin substrate (Promega Luciferase Assay System) at room temperature and detection of resultant bioluminescence at an integration constant of 10 s with the GloMax-Multi + Detection System with Instinct Software. Methylene blue (5 μM) and the clinical antimalarial candidate MMV390048 (5 μM) were used as controls. IC50 values were determined in GraphPad Prism using a nonlinear regression fit with variable slope (4-parameter) on the dose–response data.
# (§5) Assay quality parameters are evaluated for each assay, including Z′-factors (data quality compared to reproducibility using signal, noise, and background parameters; accepted metric >0.6), regression (accepted r 2 > 0.9); >80% viable parasites (top plateau); <20% killed parasites (bottom plateau), hill slope ∼1.
# [7] = system: Immature gametocytes (>90% stage II/III); test: microbe, parasite or virus in culture; format: cell-based, Plasmodium falciparum; conditions: for % Inhibition, immature gametocytes: maximum inhibition at 10 μM, 48 h drug pressure; for inhibition at 5 µM: Plasmodium falciparum, read-out: % Inhibition, immature gametocytes (controls)
# Procedure: as §4, §5
# [8] = Hydroxyl radical (ROS) generation with H2O2, DCFH2 fluorescent probe; conditions: 200 μM in 1:4 DMSO/PBS, H2O2 and H2DCF added, 30 min
# Excerpt: Fluorogenic redox-sensitive probes are often employed to measure the presence of ROS, due to their low cost, ease of use, and nontoxicity, allowing for spectrofluorimetric measurements. 2′,7′-Dichlorodihydrofluorescein diacetate (DCFH2-DA) is the most widely used fluorogenic probe. Cleavage of the acetate groups, through alkaline hydrolysis, generates 2′,7′-dichlorodihydrofluorescein (DCFH2), which in the presence of oxidants, yields the highly fluorescent 2′,7′-dichlorofluorescein (DCF, λem = 523 nm). The DCFH2 probe reacts with an array of oxidants, making it an ideal indicator of general oxidative stress. […] The presence of these radicals was confirmed by monitoring the fluorescence over time (Figure ). […].
# Stock solutions of DCFH2-DA were prepared to 1 mM in 100% DMSO and stored at −20 °C in the dark until use. The deacetylation of DCFH2-DA involved adding 2 μL of a 0.5 M NaOH solution to 200 μL of the 1 mM DCFH2-DA stock solution. The solution was mixed for 30 min, in the dark, at room temperature and then quenched with 800 μL of PBS buffer to obtain a 200 μM H2DCF 1:4 DMSO/PBS solution mixture.
# […]. The fluorometer was blanked using a 1:4 DMSO/PBS solution mixture. To identify hydroxyl radical production, 2 μL of a 0.5% H2O2 solution was added to 900 μL of the 200 μM complex solution in a cuvette at 25 °C. 100 μL of the prepared H2DCF solution (200 μM) was quickly added, and the readings recorded at 530 nm (emission wavelength), at 2 min intervals, over 30 min.
# [9] = system: CHO cell line; test: Cytotoxicity, MTT assay; conditions: selectivity index
# Procedure: as §6, §7, §8
# [10] = system: K1; conditions: MDR K1; footnote e: Results from ref (number not given); read-out: PfK1 IC50 ± SEM; cited from earlier work
# [11] = system: NF54; conditions: drug-sensitive NF54; footnote e: Results from ref (number not given); read-out: PfNF54 IC50 ± SEM; cited from earlier work
# [12] = MDR K1, ABS, pLDH, 48 h incubation
# [13] = drug-sensitive NF54, ABS, pLDH, 48 h incubation
SMILES,"IC50 ([1]; Plasmodium falciparum, 48 h)","IC50 ([2]; Plasmodium falciparum, NF54, 48 h)",IC50 [3],"IC50 [1, 12]",CC50 [4],"IC50 [2, 13]",Reversibility of the ferrocene/ferrocenium couple [5],Ipc/Ipa [5],ΔE [5],Anodic peak potential Epa [5],Cathodic peak potential Epc [5],Half-wave potential E1/2 [5],"% Inhibition, mature gametocytes [6]","% Inhibition, immature gametocytes [7]",Hydroxyl radical generation (fluorescence intensity over time) [8],SI (CC50 CHO/IC50 NF54) [9],IC50 [10],IC50 [11],inhibition at 5 µM [6],inhibition at 5 µM [7]
"CCN(CC)CCCC(C)Nc1ccnc2cc(Cl)ccc12 (stereo not shown) [CQ, chloroquine, reference compound]",170 ± 10 nM,15 ± 1 nM,11000 ± 870 nM,–,–,–,–,–,–,–,–,–,–,–,–,–,–,–,–,–
"Cc1ccc2c(c1)nc(-[c-]1cccc1)n2CCNCCNc1ccnc2cc(Cl)ccc12.[Fe+2].c1cc[cH-]c1 [Complex C2, N1-(7-Chloroquinolin-4-yl)-N2-(2-(5-methyl-2-ferrocenyl-1H-benzo[d]imidazole-1-yl)ethyl)ethane-1,2-diamine]",–,–,4470 nM,9.4 ± 0.9 nM,> 50000 nM,38 ± 2 nM,chemically and electrochemically reversible,1.03,0.133 V,0.651 V,0.518 V,0.584 V,32%,75%,no changes in the fluorescence intensity,–,–,–,–,–
"Cc1ccc2c(c1)nc(-[c-]1cccc1CN(C)C)n2CCNCCNc1ccnc2cc(Cl)ccc12.[Fe+2].c1cc[cH-]c1 (stereo not shown) [Complex C4, N1-(7-Chloroquinolin-4-yl)-N2-(2-(5-methyl-2-(2-N,N-dimethylaminomethyl)ferrocenyl-1H-benzo[d]imidazole-1-yl)ethyl)ethane-1,2-diamine]",–,–,4900 nM,170 ± 20 nM,29800 ± 500 nM,38 ± 3 nM,chemically and electrochemically irreversible,–,–,0.662 V,–,–,72%,59%,produce hydroxyl radicals,784.2,–,–,–,–
"Cc1ccc2c(c1)nc(-[c-]1cccc1)n2CCN(CCNc1ccnc2cc(Cl)ccc12)[c-]1cccc1.[Fe+2].[Fe+2].c1cc[cH-]c1.c1cc[cH-]c1 [Complex C5, N1-Ferrocenyl-N2-(7-Chloroquinolin-4-yl)-N1-(2-(5-methyl-2-ferrocenyl-1H-benzo[d]imidazole-1-yl)ethyl)ethane-1,2-diamine]",–,–,37700 ± 770 nM,14500 ± 1140 nM,> 50000 nM,1510 ± 140 nM,chemically and electrochemically reversible,1.04,0.190 V,0.632 V,0.442 V,0.537 V,32%,60%,no changes in the fluorescence intensity,–,–,–,–,–
"CN(C)Cc1ccc[c-]1CNc1ccnc2cc(Cl)ccc12.[Fe+2].c1cc[cH-]c1 (stereo not shown) [FQ, ferroquine, reference compound]",–,–,–,–,–,–,chemically and electrochemically reversible,1.00,0.125 V,0.613 V,0.488 V,0.550 V,–,–,generate hydroxyl radicals,–,23.9 ± 0.2 nM,20 ± 3 nM,–,–
"[Fe+2].c1cc[cH-]c1.c1cc[cH-]c1 [Ferrocene, reference compound]",–,–,–,–,–,–,–,1.05,0.171 V,0.543 V,0.372 V,0.458 V,–,–,generate hydroxyl radicals,–,–,–,–,–
"CS(=O)(=O)c1ccc(-c2cnc(N)c(-c3ccc(C(F)(F)F)nc3)c2)cc1 [MMV390048, reference compound]",–,–,–,–,–,–,–,–,–,–,–,–,–,–,–,–,–,–,> 93%,> 77%
"CN(C)c1ccc2nc3ccc(=[N+](C)C)cc-3sc2c1 [Methylene blue, reference compound]",–,–,–,–,–,–,–,–,–,–,–,–,–,–,–,–,–,–,100%,> 97%
